28 molecules from patent publication US12655175B2, “C17, C20, and C21 substituted neuroactive steroids and their methods of use” (Sage Therapeutics, LLC, priority 2016, dated 2026) can be followed below.

In this assay the target is GABAA receptor. As to the kind of experiment: Steroid inhibition of [35S]-TBPS binding. The settings on record: rat brain cortical membranes, 3 nM [35S]-TBPS, in the presence of 5 mM GABA. The protocol: Steroid Inhibition of TBPS Binding
Briefly, cortices are rapidly removed following decapitation of carbon dioxide-anesthetized Sprague-Dawley rats ([…]). The cortices are homogenized in 10 volumes of ice-cold 0.32 M sucrose using a glass/teflon homogenizer and centrifuged at 1500×g for 10 min at 4° C. The resultant supernatants are centrifuged at 10,000×g for 20 min at 4° C. to obtain the P2 pellets. The P2 pellets are resuspended in 200 mM NaCl/50 mM Na—K phosphate pH 7.4 buffer and centrifuged at 10,000×g for 10 min at 4° C. This washing procedure is repeated twice and the pellets are resuspended in 10 volumes of buffer. Aliquots ([…]) of the membrane suspensions are incubated with 3 nM [^35S]-TBPS and […] aliquots of test drug dissolved in dimethyl sulfoxide (DMSO) (final 0.5%) in the presence of 5 mM GABA. The incubation is brought to a final volume of 1.0 mL with buffer. […] Following a 90 min incubation at room temp, the assays are terminated by filtration through glass fiber filters (Schleicher and Schuell No. 32) using a cell harvester (Brandel) and rinsed three times with ice-cold buffer. Filter bound radioactivity is measured by liquid scintillation spectrometry. Non-linear curve fitting of the overall data for each drug averaged for each concentration is done using Prism (GraphPad).
Various compounds are or can be screened to determine their potential as modulators of [^35S]-TBPS binding in vitro. These assays are or can be performed in accordance with the above discussed procedures.

As to `CN(Cc1ccccn1)C(=O)[C@H]1CC[C@H]2[C@@H]3CC[C@@H]4C[C@](C)(O)CC[C@@H]4[C@H]3CC[C@]12C` [Compound 22], the IC50 is more than 500 nM. To `C[C@@]1(O)CC[C@H]2[C@H](CC[C@@H]3[C@@H]2CC[C@]2(C)[C@@H](C(=O)CNc4ccccc4)CC[C@@H]32)C1` [Compound 38] belongs less than 10 nM.

Regarding `C[C@@]1(O)CC[C@@]2(C)[C@@H](CC[C@@H]3[C@@H]2CC[C@]2(C)[C@@H](NC(=O)c4ccccc4)CC[C@@H]32)C1` [Compound 94], the IC50 is more than 500 nM. To `CN([C@H]1CC[C@H]2[C@@H]3CC[C@H]4C[C@](C)(O)CC[C@]4(C)[C@H]3CC[C@]12C)S(=O)(=O)c1ccccc1` [Compound 96] belongs more than 500 nM; to `C[C@@]1(O)CC[C@H]2[C@H](CC[C@@H]3[C@@H]2CC[C@]2(C)[C@@H](C(=O)NCC4CCCCC4)CC[C@@H]32)C1` [Compound 17], 100 to 500 nM; to `C[C@@H](c1ccccc1)N(C)C(=O)[C@H]1CC[C@H]2[C@@H]3CC[C@@H]4C[C@](C)(O)CC[C@@H]4[C@H]3CC[C@]12C` [Compound 21], 10 to 50 nM.

As for `C[C@@]1(O)CC[C@H]2[C@H](CC[C@@H]3[C@@H]2CC[C@]2(C)[C@@H](c4ccccc4)CC[C@@H]32)C1` [Compound 101], the IC50 fell in the range of 100 to 500 nM. To `C[C@@]1(O)CC[C@@]2(C)[C@@H](CC[C@@H]3[C@@H]2CC[C@]2(C)[C@@H](Nc4ccc(F)cc4)CC[C@@H]32)C1` [Compound 89] belongs 100 to 500 nM; to `CN(CC(=O)[C@H]1CC[C@H]2[C@@H]3CC[C@@H]4C[C@](C)(O)CC[C@@H]4[C@H]3CC[C@]12C)c1ccccc1` [Compound 39], 50 to 100 nM; to `C[C@H](NC(=O)[C@H]1CC[C@H]2[C@@H]3CC[C@@H]4C[C@](C)(O)CC[C@@H]4[C@H]3CC[C@]12C)c1ccccc1` [Compound 27], 100 to 500 nM. To `C[C@@H](c1ccc(C#N)cc1)N(C)C(=O)[C@H]1CC[C@H]2[C@@H]3CC[C@@H]4C[C@@](O)(C(F)(F)F)CC[C@@H]4[C@H]3CC[C@]12C` [Compound 70] belongs 100 to 500 nM; to `CCOC[C@@]1(O)CC[C@H]2[C@H](CC[C@@H]3[C@@H]2CC[C@]2(C)[C@@H](C(=O)N4CCC[C@@H]4c4ncco4)CC[C@@H]32)C1` [Compound 60], more than 500 nM.

Consider `CCOC[C@@]1(O)CC[C@H]2[C@@H](CC[C@@H]3[C@@H]2CC[C@]2(C)[C@@H](C(=O)CN(C)c4ccccc4)CC[C@@H]32)C1` [Compound 85], for which the IC50 is more than 500 nM. For `C[C@@]1(O)CC[C@H]2[C@H](CC[C@@H]3[C@@H]2CC[C@]2(C)[C@@H](c4cccc(C#N)c4)CC[C@@H]32)C1` [Compound 105], the IC50 is 10 to 50 nM. To `C[C@@]1(O)CC[C@H]2[C@H](CC[C@@H]3[C@@H]2CC[C@]2(C)[C@@H](C(=O)NCCc4ccccc4)CC[C@@H]32)C1` [Compound 19] belongs 100 to 500 nM; to `C[C@@]1(O)CC[C@H]2[C@H](CC[C@@H]3[C@@H]2CC[C@]2(C)[C@@H](c4cccnc4)CC[C@@H]32)C1` [Compound 106], 10 to 50 nM; to `CN(Cc1ccccc1)C(=O)[C@H]1CC[C@H]2[C@@H]3CC[C@@H]4C[C@](C)(O)CC[C@@H]4[C@H]3CC[C@]12C` [Compound 4], 10 to 50 nM. `CC[C@H](NC(=O)[C@H]1CC[C@H]2[C@@H]3CC[C@@H]4C[C@](C)(O)CC[C@@H]4[C@H]3CC[C@]12C)c1ccc(F)cc1` (single isomer, unassigned) [Compound 33]: the IC50 was in the range of 100 to 500 nM. To `Cn1cc([C@H]2CC[C@H]3[C@@H]4CC[C@@H]5C[C@](C)(O)CC[C@@H]5[C@H]4CC[C@]23C)cn1` [Compound 111] belongs 50 to 100 nM; to `CCOC[C@]12CC[C@@](C)(O)C[C@@H]1CC[C@H]1[C@@H]3CC[C@H](C(=O)CN(C)c4ccccc4)[C@@]3(C)CC[C@@H]12` [Compound 65], 100 to 500 nM. To `CCOC[C@@]1(O)CC[C@H]2[C@H](CC[C@@H]3[C@@H]2CC[C@]2(C)[C@@H](C(=O)N(C)[C@H](C)c4ccc(C#N)cc4)CC[C@@H]32)C1` [Compound 49] belongs 50 to 100 nM; to `C[C@@]1(O)CC[C@H]2[C@H](CC[C@@H]3[C@@H]2CC[C@]2(C)[C@@H](C(=O)N4CC[C@@H](c5ccccc5)C4)CC[C@@H]32)C1` [Compound 30], 100 to 500 nM. To `COC[C@]12CC[C@@](C)(O)C[C@H]1CC[C@H]1[C@@H]3CC[C@H](C(=O)CN(C)c4ccccc4)[C@@]3(C)CC[C@@H]12` [Compound 75] belongs 10 to 50 nM; to `C[C@@]1(O)CC[C@H]2[C@H](CC[C@@H]3[C@@H]2CC[C@]2(C)[C@@H](C(=O)NCc4ccncc4)CC[C@@H]32)C1` [Compound 11], more than 500 nM. In the case of `CCOC[C@@]1(O)CC[C@H]2[C@H](CC[C@@H]3[C@@H]2CC[C@]2(C)[C@@H](C(=O)CN(C)c4ccccc4)CC[C@@H]32)C1` [Compound 83], the IC50 is 100 to 500 nM. To `C[C@@]1(O)CC[C@@]2(C)[C@@H](CC[C@@H]3[C@@H]2CC[C@]2(C)[C@@H](Nc4ccccc4F)CC[C@@H]32)C1` [Compound 91] belongs more than 500 nM; to `C[C@@]1(O)CC[C@@]2(C)[C@@H](CC[C@@H]3[C@@H]2CC[C@]2(C)[C@@H](Nc4ccccc4)CC[C@@H]32)C1` [Compound 87], 100 to 500 nM; to `C[C@@]1(O)CC[C@H]2[C@H](CC[C@@H]3[C@@H]2CC[C@]2(C)[C@@H](C(=O)CNc4ccc(F)cc4)CC[C@@H]32)C1` [Compound 40], less than 10 nM.
